Source: PMC7730235, “Discovery of a Novel Class of Covalent Dual Inhibitors Targeting the Protein Kinases BMX and BTK” (International Journal of Molecular Sciences, 2020)
pIC50: −log10 of the molar value. One block for each molecule: values may come before it.

Tests used:
BLK = target: T1, BLK (Homo sapiens, UniProt P51451); test: Radiometric kinase assay (Reaction Biology HotSpot); format: biochemical; conditions: radiometric HotSpot, five-dose singlicate, [ATP] = 10 μM
T1 construct: purchased Reaction Biology Corporation
Description: (§1) If not mentioned differently, in vitro profiling of compounds was performed at Reaction Biology Corporation using the HotSpot™ assay platform.

EGFR = target: T2, EGFR (Homo sapiens, UniProt P00533); test: as above; format: biochemical; conditions: radiometric HotSpot, five-dose singlicate, [ATP] = 10 μM
T2 construct: purchased Reaction Biology Corporation
Description: as §1

HER2 = target: T3, HER2 (Homo sapiens, UniProt P04626); test: as above; format: biochemical; conditions: radiometric HotSpot, five-dose singlicate, [ATP] = 10 μM
T3 construct: purchased Reaction Biology Corporation
Description: as §1

HER4 = target: T4, HER4 (Homo sapiens, UniProt Q15303); test: as above; format: biochemical; conditions: radiometric HotSpot, five-dose singlicate, [ATP] = 10 μM
T4 construct: purchased Reaction Biology Corporation
Description: as §1

ITK = target: T5, ITK (Homo sapiens, UniProt Q08881); test: as above; format: biochemical; conditions: read-out: Residual Activity @ 200 nM, ITK
T5 construct: purchased Reaction Biology Corporation
T5 sequence (Q08881 1-620): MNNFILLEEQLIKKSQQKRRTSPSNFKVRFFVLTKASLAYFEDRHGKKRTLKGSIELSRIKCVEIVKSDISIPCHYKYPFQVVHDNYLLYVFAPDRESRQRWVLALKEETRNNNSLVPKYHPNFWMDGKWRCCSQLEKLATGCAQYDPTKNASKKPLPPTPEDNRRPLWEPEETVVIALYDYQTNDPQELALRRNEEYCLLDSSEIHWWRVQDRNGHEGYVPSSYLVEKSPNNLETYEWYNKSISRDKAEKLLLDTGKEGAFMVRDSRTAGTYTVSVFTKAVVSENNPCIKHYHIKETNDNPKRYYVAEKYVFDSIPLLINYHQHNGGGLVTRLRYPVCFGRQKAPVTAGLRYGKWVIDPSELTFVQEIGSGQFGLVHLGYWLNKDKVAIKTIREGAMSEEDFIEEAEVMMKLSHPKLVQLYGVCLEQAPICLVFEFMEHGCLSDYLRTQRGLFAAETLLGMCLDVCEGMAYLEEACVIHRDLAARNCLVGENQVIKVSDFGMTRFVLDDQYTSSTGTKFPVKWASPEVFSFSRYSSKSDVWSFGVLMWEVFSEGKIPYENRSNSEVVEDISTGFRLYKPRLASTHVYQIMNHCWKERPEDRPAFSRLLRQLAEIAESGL
Description: as §1

JAK3 = target: T6, JAK3 (Homo sapiens, UniProt P52333); test: as above; format: biochemical
T6 construct: purchased Reaction Biology Corporation
T6 sequence (P52333 1-1124): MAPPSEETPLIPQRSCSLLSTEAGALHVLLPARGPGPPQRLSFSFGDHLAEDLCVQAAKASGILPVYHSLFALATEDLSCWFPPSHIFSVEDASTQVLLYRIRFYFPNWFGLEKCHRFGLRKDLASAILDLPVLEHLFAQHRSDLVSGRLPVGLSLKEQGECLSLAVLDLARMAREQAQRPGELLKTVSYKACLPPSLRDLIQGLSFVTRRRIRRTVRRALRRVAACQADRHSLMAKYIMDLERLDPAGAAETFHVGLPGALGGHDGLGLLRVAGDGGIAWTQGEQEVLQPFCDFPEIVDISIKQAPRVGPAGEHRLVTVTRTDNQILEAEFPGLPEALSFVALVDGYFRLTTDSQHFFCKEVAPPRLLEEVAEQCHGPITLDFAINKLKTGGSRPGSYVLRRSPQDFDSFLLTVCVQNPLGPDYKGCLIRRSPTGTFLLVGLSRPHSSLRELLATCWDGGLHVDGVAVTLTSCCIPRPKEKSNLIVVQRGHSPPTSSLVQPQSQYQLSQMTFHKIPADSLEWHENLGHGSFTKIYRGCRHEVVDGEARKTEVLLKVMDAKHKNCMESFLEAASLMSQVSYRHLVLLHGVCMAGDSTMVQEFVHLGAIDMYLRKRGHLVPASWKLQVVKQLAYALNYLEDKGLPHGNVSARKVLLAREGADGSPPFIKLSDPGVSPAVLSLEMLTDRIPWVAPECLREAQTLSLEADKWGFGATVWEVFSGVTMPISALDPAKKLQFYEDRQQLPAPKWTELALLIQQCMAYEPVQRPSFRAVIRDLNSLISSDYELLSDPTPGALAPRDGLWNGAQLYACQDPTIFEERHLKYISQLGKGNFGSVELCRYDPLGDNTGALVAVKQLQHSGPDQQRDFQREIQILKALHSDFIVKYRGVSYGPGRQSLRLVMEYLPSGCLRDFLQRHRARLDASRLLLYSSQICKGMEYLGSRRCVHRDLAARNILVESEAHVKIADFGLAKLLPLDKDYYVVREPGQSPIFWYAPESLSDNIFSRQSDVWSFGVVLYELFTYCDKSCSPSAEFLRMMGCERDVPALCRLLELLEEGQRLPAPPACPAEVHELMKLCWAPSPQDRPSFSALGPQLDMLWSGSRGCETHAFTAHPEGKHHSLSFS
Description: as §1

MKK7 = target: T7, MKK7 (Homo sapiens, UniProt O14733); test: as above; format: biochemical; conditions: read-out: Residual Activity @ 200 nM, MKK7
T7 construct: purchased Reaction Biology Corporation
T7 sequence (O14733 1-419): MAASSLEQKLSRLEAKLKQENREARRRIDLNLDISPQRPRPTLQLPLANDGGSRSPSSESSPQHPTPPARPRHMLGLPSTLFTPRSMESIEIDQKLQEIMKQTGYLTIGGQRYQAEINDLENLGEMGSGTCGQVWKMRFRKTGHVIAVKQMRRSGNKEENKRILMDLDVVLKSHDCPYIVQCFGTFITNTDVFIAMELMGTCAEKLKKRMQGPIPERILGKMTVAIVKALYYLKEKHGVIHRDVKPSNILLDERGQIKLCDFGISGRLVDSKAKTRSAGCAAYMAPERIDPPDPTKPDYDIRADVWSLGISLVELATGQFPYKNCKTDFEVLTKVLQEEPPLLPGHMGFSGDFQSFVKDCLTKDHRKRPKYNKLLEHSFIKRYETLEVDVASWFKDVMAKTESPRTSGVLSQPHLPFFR
Description: as §1

TEC = target: T8, TEC (Homo sapiens, UniProt P42680); test: as above; format: biochemical; conditions: radiometric HotSpot, five-dose singlicate, [ATP] = 10 μM
T8 construct: purchased Reaction Biology Corporation
T8 sequence (P42680 1-631): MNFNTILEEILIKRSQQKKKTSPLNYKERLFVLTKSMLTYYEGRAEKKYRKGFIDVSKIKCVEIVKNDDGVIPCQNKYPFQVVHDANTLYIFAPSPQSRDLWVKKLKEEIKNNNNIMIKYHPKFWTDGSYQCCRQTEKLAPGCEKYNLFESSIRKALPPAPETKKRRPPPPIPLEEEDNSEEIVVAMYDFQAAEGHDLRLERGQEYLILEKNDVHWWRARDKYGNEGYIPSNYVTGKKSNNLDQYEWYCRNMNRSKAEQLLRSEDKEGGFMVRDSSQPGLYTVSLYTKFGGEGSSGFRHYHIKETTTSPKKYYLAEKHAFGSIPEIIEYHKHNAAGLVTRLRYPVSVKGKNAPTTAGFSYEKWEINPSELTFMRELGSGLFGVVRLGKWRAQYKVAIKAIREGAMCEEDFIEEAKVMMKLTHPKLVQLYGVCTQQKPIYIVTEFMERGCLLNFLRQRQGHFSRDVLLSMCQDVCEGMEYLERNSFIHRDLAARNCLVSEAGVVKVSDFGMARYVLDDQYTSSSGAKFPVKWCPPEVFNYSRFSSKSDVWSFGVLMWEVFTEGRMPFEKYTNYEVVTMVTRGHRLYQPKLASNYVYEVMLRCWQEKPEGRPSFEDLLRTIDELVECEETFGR
Description: as §1

TXK = target: T9, TXK (Homo sapiens, UniProt P42681); test: as above; format: biochemical; conditions: radiometric HotSpot, five-dose singlicate, [ATP] = 10 μM
T9 construct: purchased Reaction Biology Corporation
T9 sequence (P42681 1-527): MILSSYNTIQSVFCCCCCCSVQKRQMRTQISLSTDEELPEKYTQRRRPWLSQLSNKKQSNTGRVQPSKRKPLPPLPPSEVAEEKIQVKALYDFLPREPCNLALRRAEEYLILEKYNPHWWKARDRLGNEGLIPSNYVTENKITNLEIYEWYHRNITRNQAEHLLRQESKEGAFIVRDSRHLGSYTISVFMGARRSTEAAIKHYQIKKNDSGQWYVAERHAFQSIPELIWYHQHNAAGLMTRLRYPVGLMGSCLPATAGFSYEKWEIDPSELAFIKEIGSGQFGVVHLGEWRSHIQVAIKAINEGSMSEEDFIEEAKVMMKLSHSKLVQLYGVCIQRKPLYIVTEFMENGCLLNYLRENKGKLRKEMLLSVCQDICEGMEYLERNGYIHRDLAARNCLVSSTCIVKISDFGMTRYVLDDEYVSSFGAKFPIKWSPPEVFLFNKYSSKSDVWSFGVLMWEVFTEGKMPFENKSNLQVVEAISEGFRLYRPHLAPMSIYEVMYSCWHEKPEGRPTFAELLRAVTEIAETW
Description: as §1

glutathione (GSH) = test: Glutathione reactivity / stability against GSH; format: physicochemical; conditions: glutathione (GSH) in PBS buffer, pH 7.4, 5 mM GSH, read-out: half-life (t1/2) against glutathione (converted)
Description: A total of 5 µL of a 10 mM compound stock solution in DMSO were added to 5 µL of a 4 mM Indoprofen solution in PBS as internal standard. The mixture was diluted with PBS buffer to a total volume of 1 mL of component A. Additionally, a freshly prepared solution of 10 mM GSH in PBS buffer was used as component B. A total of 250 µL of each component was mixed and immediately subjected to HPLC analysis for t^0 measurement. The probes were stored at 40 °C in between the respective injections. t1/2 was determined by plotting natural logarithm of AUC/AUC0 against time.

BMX = target: T10, BMX (Homo sapiens, UniProt P51813); conditions: cited from earlier work
T10 construct: purchased Reaction Biology Corporation
T10 sequence (P51813 1-675): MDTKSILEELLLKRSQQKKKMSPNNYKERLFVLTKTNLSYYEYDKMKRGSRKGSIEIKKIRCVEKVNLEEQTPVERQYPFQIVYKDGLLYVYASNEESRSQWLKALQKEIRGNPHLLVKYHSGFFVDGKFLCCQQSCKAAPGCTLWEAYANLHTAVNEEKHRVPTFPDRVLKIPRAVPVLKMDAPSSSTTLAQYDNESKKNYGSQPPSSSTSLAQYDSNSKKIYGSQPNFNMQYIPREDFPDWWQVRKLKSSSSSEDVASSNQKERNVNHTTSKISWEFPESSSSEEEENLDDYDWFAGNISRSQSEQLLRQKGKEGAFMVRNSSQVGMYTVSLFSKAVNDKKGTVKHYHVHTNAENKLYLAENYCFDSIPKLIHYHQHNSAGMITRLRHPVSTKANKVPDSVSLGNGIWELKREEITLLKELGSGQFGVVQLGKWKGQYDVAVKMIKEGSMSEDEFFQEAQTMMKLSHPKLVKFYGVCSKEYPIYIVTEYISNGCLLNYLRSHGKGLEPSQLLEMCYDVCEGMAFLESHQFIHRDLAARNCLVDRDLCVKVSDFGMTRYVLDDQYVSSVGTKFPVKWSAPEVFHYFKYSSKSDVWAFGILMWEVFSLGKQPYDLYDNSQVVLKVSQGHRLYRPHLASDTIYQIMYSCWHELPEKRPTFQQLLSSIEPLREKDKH

T4 sequence (Q15303 26-1308): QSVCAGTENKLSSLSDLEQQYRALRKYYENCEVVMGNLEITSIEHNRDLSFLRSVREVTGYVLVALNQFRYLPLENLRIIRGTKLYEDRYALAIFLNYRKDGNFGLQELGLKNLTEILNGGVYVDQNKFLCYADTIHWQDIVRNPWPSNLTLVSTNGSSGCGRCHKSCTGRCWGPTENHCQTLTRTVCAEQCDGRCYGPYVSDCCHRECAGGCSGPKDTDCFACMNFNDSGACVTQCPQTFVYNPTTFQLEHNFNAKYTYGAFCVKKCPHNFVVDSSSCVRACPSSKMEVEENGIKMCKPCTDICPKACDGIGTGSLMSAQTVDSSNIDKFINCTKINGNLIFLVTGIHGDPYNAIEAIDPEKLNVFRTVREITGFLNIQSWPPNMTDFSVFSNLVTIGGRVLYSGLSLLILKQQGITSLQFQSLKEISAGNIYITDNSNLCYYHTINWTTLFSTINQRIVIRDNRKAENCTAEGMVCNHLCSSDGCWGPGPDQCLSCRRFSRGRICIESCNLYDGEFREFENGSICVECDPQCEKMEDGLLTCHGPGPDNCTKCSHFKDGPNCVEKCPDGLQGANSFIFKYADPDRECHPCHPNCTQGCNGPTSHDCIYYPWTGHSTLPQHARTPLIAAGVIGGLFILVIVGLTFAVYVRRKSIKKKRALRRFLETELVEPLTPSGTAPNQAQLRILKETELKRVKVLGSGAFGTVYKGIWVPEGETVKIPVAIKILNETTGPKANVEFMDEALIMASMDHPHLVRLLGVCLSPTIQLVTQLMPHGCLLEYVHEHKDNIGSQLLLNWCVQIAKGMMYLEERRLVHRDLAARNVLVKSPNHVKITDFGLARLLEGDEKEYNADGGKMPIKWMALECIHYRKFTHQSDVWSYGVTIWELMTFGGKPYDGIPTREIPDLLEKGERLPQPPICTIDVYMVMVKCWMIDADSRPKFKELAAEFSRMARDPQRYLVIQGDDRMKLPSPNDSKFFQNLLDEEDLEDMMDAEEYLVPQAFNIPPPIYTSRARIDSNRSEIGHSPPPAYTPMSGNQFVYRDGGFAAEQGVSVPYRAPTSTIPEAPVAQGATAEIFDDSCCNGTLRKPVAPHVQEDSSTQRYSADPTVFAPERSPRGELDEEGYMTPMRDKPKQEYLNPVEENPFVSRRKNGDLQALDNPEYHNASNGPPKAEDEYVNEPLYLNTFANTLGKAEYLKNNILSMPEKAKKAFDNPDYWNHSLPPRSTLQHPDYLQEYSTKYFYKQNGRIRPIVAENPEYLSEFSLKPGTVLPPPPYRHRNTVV
T2 sequence (P00533 25-1210): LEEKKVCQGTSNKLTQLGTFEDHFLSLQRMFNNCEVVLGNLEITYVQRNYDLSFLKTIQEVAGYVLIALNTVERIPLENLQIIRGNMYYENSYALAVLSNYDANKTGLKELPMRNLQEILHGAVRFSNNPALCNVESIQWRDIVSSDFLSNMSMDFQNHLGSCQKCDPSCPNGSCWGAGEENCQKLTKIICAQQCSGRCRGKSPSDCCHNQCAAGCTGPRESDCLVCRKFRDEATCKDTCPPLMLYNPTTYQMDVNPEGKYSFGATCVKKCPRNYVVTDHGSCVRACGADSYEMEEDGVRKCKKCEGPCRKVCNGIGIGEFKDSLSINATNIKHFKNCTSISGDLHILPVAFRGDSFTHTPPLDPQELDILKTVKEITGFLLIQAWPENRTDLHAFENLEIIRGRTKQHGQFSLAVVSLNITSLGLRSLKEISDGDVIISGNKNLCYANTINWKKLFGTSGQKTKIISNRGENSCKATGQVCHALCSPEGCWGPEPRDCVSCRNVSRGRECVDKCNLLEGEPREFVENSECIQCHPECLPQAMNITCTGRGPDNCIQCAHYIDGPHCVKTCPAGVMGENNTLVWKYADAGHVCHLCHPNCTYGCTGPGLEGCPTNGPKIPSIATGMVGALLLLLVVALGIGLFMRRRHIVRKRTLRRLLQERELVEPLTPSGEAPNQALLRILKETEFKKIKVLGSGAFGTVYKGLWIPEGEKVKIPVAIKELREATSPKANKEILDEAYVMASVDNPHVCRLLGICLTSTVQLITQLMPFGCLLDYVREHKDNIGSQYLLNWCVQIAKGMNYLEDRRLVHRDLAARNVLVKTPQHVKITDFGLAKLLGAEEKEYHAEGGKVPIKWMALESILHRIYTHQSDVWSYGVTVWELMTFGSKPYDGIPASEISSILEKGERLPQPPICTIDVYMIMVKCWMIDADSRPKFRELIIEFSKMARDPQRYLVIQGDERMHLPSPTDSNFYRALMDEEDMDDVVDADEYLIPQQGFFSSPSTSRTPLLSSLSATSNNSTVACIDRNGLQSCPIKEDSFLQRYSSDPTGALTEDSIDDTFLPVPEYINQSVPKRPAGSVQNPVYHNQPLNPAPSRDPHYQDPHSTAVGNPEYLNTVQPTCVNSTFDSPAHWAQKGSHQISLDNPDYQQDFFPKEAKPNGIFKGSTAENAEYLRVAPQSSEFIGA
T3 sequence (P04626 23-1255): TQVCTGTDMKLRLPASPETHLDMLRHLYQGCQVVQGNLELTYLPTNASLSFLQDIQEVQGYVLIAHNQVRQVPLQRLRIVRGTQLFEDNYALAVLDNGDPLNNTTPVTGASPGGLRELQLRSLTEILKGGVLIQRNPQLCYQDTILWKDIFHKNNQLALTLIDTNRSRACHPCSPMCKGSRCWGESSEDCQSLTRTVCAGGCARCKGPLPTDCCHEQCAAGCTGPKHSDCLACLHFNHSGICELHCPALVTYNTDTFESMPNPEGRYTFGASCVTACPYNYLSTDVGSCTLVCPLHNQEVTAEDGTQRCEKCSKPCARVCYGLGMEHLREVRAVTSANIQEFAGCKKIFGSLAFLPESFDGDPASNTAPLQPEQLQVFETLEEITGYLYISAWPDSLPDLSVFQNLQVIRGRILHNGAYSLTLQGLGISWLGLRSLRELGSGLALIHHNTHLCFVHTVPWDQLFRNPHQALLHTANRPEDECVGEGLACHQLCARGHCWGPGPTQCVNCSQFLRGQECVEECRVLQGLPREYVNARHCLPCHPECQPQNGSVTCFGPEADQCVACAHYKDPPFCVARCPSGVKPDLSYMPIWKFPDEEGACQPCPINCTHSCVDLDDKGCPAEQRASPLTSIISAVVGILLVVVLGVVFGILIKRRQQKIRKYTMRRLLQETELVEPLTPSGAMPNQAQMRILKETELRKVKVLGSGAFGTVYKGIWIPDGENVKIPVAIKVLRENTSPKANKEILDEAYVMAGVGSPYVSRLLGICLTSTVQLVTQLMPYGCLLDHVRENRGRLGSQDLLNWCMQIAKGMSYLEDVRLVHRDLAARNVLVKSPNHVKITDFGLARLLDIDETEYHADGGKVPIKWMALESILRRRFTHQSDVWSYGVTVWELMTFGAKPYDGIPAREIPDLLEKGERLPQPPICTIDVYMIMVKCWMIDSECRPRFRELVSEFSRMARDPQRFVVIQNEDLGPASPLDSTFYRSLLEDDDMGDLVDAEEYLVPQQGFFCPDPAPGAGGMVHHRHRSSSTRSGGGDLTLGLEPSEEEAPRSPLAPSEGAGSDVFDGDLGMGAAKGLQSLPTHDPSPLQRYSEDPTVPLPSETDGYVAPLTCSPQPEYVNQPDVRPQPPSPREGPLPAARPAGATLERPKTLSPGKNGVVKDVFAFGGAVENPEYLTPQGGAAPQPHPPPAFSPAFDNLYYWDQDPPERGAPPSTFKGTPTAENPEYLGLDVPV
T1 sequence (P51451 whole entry): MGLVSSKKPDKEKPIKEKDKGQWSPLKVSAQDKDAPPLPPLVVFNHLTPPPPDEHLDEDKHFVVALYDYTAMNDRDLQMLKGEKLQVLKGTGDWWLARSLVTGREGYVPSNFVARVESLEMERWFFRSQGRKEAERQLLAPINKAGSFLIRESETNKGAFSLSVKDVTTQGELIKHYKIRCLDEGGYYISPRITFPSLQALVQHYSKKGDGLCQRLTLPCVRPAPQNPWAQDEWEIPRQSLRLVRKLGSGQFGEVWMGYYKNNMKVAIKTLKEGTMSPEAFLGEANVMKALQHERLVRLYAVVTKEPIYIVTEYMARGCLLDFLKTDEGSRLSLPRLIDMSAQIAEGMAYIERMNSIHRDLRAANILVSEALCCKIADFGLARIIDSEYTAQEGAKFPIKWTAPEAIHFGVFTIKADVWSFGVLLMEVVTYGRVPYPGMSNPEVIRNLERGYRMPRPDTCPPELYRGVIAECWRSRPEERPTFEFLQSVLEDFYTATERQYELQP

Structure (SMILES): C=CC(=O)Nc1cccc(-c2c[nH]c3ncc(NC(=O)C4CCCC4)cc23)c1 [Compound 12a, N-(3-(3-acrylamidophenyl)-1H-pyrrolo[2,3-b]pyridin-5-yl)cyclopentanecarboxamide]
pIC50 (BLK): 7.28
pIC50 (EGFR): 6.80
pIC50 (HER2): 6.21
pIC50 (HER4): 6.97
remaining activity at 0.2 µM (ITK): 98.5%
pIC50 (JAK3; radiometric HotSpot, five-dose singlicate, [ATP] = 10 μM): 5.87
remaining activity at 0.2 µM (JAK3; read-out: Residual Activity @ 200 nM, JAK3): 94.5%
remaining activity at 0.2 µM (MKK7): 100%
pIC50 (TEC): 7.51
pIC50 (TXK): 7.89

half-life at 25 µM (glutathione (GSH)): 45.6 min
Structure (SMILES): CN(C)C/C=C/C(=O)Nc1cc2c(Nc3ccc(F)c(Cl)c3)ncnc2cc1O[C@H]1CCOC1 [Afatinib, reference compound]

Structure (SMILES): C=CC(=O)Nc1cc(C)cc(-n2c(=O)ccc3cnc4cc(-c5ccc(NS(C)(=O)=O)cc5)ccc4c32)c1 [JS25]
kinact/KI BMX (BMX): 1.9e+07 M⁻¹ s⁻¹
